Results reported in patent publication US20240299394A1, “TARGETED TREATMENT FOR SKIN FRAGILITY DISEASES” (University of Washington, priority 2023, published 2024).

Legend:
[1] = system: NHEKs; test: Immunofluorescence of plakoglobin / desmosomal protein localization; assay type: cell-based, human; settings: B-RAF inhibitor alone, 24 hours in E-medium
Experimental: Keratinocytes were grown to confluency in 35 mm glass-bottom cell culture dishes (MatTek of Ashland, MA, Cat. #P35G-1.5-20-C). For staining keratins and desmosomal proteins, cells were fixed in ice-cold 100% methanol at −20° C. for 2 minutes, allowed to dry, then re-hydrated in PBS. For staining other proteins, cells were fixed in 4% paraformaldehyde for 10 minutes at 37° C. Fixed cells were then incubated with blocking buffer [0.5% (w/v) bovine serum albumin (BSA, Sigma), 10% (w/v) normal goat serum (NGS, Sigma) in PBS] for 30 min at 37° C. Cells were then washed with PBS. Primary antibodies were diluted in 0.5% (w/v) BSA in PBS and incubated on the cells overnight at 4° C. Primary antibody dilutions were as follows: chicken anti-plakoglobin (1:1000). […]
Images were acquired on a Hamamatsu ORCA-FusionBT sCMOS camera (Hamamatsu of Hamamatsu City, Japan) using a Yokogawa W1 spinning-disk confocal (SDC) system (Yokogawa of Musashino, Tokyo, Japan) on a Nikon Ti2 microscope (Nikon of Minato City, Tokyo, Japan). Samples were illuminated using 405, 488, 561, and 640 nm laser excitation lines and fluorescence was detected using a 60×1.2 numerical aperture (NA) water objective (Nikon) with standard emission filters.

[2] = system: NHEK monolayers; test: Monolayer mechanical dissociation assay, SERCA2 inhibition with thapsigargin; assay type: cell-based, human; settings: with 1 μM TG, 24 hours; 1 μM Tram, 10 μM U0126, 20 μM PD98059, 1 μM dabrafenib
Experimental: Dispase-based mechanical dissociation assays were carried out as described (Simpson C L, et al. Am J Pathol. 2010; 177(6): p. 2921-37). Keratinocytes were plated at a density of 1×10^6 cells per well of 6-well cell culture dishes. Upon reaching confluence, the calcium concentration of the medium was adjusted to 1.3 mM. Vehicle control (DMSO) or chemical inhibitors were added at the following concentrations: […] After 24 to 72 hours, monolayers were washed with PBS and then incubated with 500 μL dispase (5 U/ml) in Hank's balanced salt solution (Stemcell Technologies of Vancouver, CA, Cat. #07913) for 30 minutes at 37° C. Next, 4.5 ml PBS was added to the wells and all liquid plus released monolayers were transferred into 15 mL conical tubes, which were placed together in a rack and inverted 5-10 times to induce mechanical stress. Monolayer fragments were transferred back into 6-well cell culture plates and imaged with a 12-megapixel digital camera. Fragments were counted in Fiji.

[3] = system: ERK; test: ERK biosensor (ERK-KTR-mClover) live imaging; assay type: cell-based, human; settings: Dab or Vem alone, 24 h, 1.2 mM calcium
Experimental: For live imaging of the ERK biosensor, NHEKs were transduced with ERK-KTR-mClover (Addgene Cat. #59150). HEK293FT cells were grown in complete DMEM, then transfected with 4 μg pLenti-CMV-PuroDEST-ERK-KTR-mClover DNA plus 12 μl FuGENE 6 (Promega of Madison, WI, Cat. #E2691) in 800 μL of Opti-MEM (Thermo-Fisher Cat. #31985070), which was added to the cells and left overnight. Lentiviral supernatants were collected the next day and polybrene (Sigma Cat. #H9268) was added at a concentration of 4 μg/mL. M154 was removed from NHEKs and replaced with viral medium for 1 hour at 37° C. Cells were then washed in PBS and placed back in their normal medium and expanded in culture.
ERK-KTR-mClover-transduced cells were seeded into 35 mm glass-bottom dishes in low calcium medium (0.31 mM) and grown to confluency. […] Using Fiji (Fiji software, https://github.com/fiji/fiji), the nuclear region was encircled with the polygon tool and the “Measure” function was used to calculate the mean fluorescence intensity; after using the “Cut” function to remove the nuclear region, then remaining cytoplasmic region was encircled with the polygon tool and the “Measure” function was used to calculate the mean fluorescence intensity. The ERK activity index was calculated as the ratio of the cytoplasmic integrated fluorescence intensity (active) to the nuclear integrated fluorescence intensity.

[4] = system: ERK; test: Western blotting of pERK in NHEK lysates; assay type: cell-based, human; settings: Dab 1 μM or Vem 10 μM alone, 24 hours in E-medium, vs DMSO
Experimental: NHEKs were seeded at a density of 1×10^6 cells per well of 6-well cell culture dishes in M154. Upon reaching confluence, M154 was replaced with E-medium containing vehicle control (DMSO) or inhibitors at the following concentrations: Dabrafenib (1 μM), vemurafenib (10 μM), trametinib (1 μM). After 24 hours, whole-cell lysates were generated by washing cells once in phosphate-buffered saline (PBS) followed by lysis in urea sample buffer [8 M Urea, 60 mM Tris, 1% SDS, 10% glycerol, 5% β-mercaptoethanol, 0.0005% pyronin-Y, pH 6.8] for 10 min. Lysates were homogenized using a microtip probe sonicator (Fisher Scientific).
Whole-cell lysates were loaded onto NuPAGE 12% Bis-Tris Gels (Thermo-Fisher Cat. #NP0343BOX) and separated by electrophoresis using NuPAGE MES SDS Running Buffer (Thermo-Fisher Cat. #NP0002). Proteins were transferred onto Immobilon-FL membrane (Millipore of Burlington, MA, Cat. #IPFL85R) in transfer buffer (25 mM Tris, 192 mM glycine, 20% (v/v) methanol) at 50 volts (V) for 60 minutes. Membranes were blocked in Intercept tris-buffered saline (TBS) blocking buffer (LI-COR) for 60 minutes at room temperature. Membranes were probed overnight at 4° C. with the primary antibodies diluted in Intercept TBS blocking buffer (LI-COR). […]

[5] = B-RAF inhibitor monotherapy for cancer (Carlos G, et al. 2015); cited from earlier work

In the case of `CC(C)(C)c1nc(-c2cccc(NS(=O)(=O)c3c(F)cccc3F)c2F)c(-c2ccnc(N)n2)s1` [dabrafenib], the “localization of desmosomal proteins” value [1] is reported as “induced mislocalization of desmosomal proteins”, the “integrity of epithelial sheets despite SERCA2 inhibition” value [2] is reported as “did not promote intercellular adhesion, but rather exacerbated the effect of TG” and the “ERK activity (biosensor)” value [3] is reported as “induced ERK activation”. The “pERK by Western blotting” value [4] was “sufficient to increase the active phosphorylated form of ERK (pERK)” and the “patients in whom GD was seen” value [5] was 42.9%.
